A short description of data set [1]: Comparative urine analysis after ingesting cough syrup (LC-MS/MS, creatinine-normalized). The class given is in vivo, humans. The note with it: 15 mL cough syrup oral; for k el / MRT / Tmax / half-life: human, in vivo; for MRT: reciprocal of kel; for Tmax: seven volunteers; for half-life: time from Cmax to half of Cmax.
Procedure: Before analysis, the urine samples were thawed at room temperature and centrifuged at 6,000g to remove coarse material. Subsequently, 1 mL of the supernatant was combined with 10 μL of the internal standard mixture (containing 10 ng/mL Cod-d 6 and Clp-d 6) and loaded onto C18 solid-phase extraction (SPE) columns for sample cleanup, following previously established protocols. The SPE eluate was then dried under a nitrogen stream and redissolved in 100 μL of methanol before analysis using the same LC–MS/MS method described earlier for mask sample analysis. In a separate LC–MS/MS analysis, urinary creatinine concentration was determined using creatinine-d 3 as an internal standard, as reported previously.
Grubb’s test was conducted to identify outliers. The biological half-life (t 1/2) of individual drugs was calculated as the time for their concentration in exhaled breath or urine to decrease from its maximum (C max) to half of C max. The elimination rate constant (k el) and mean residence time (MRT) of each drug were determined from the slope of the elimination phase of the exhaled breath or urine concentration curve plotted on a semilogarithmic scale and by taking the reciprocal of the elimination rate constant, respectively.
The conditions of data set [2]: reported in the literature, ref numbers not given; cited from earlier work.
The nature of data set [3]: Drug clearance study by breathing through face masks (exhaled breath, LC-MS/MS). The note with it: for MRT / Tmax / half-life / k el: both, human, in vivo, po, 15 mL.
For data set [4] the following is noted: both, human, in vivo, po.
The next data set can be described thus: clinical. The settings on record: both, human, in vivo, po.
For data set [5] the following is noted: PubChem, cited from earlier work.
Setting [6] is: exhaled breath, 15 mL cough syrup oral.

Where two headings read alike, the source gives them in different places.

As a reminder, the MRT is a mean duration of stay, worked out from the concentration-time curve. One may read the Tmax as the time from dosing to the highest level. The term half-life denotes the time in which the quantity being followed falls by half. Low readings indicate rapid decline, high ones slow decline. Consider `CN[C@@H](C)[C@H](O)c1ccccc1` [Ephedrine], for which, in data set [1], the detection window is listed as 79.9 ± 11.4 h, the k el was 2.78e-05 s⁻¹, the MRT is 10.4 ± 3.3 h and the Tmax stood at 2.7 ± 1.8 h. Besides, the half-life in data set [1] was 6.2 ± 0.6 h. Besides, the “plasma t1/2” value in data set [2] is recorded as “approximately 6 h”. In data set [3], the MRT turned out to be 14.5 ± 4.1 h, the Tmax is 6.9 ± 1.1 h, the half-life was 10 ± 2.8 h and the k el is 2.78e-05 s⁻¹. In data set [3] (setting [6]), the “Cmax in exhaled breath” value is 10.8 ± 1.6 ng/m^3 and the detection window is 92.6 ± 9.1 h.
Regarding `COc1ccccc1OCC(O)CO` (stereo not shown) [Guaifenesin], the detection window in data set [4] was determined as 65.1 ± 18.1 h. Also, in “clinical”, the MRT was 4.8 ± 4.2 h, the time to peak (Tmax) is 0.9 ± 0.2 h, the half-life was 2.1 ± 0.9 h and the k el is 0.000111 s⁻¹. Further, in data set [2], the “plasma t1/2” value is reported as ~1 h.
In the case of `COc1ccc2c3c1O[C@H]1[C@@H](O)C=C[C@H]4[C@@H](C2)N(C)CC[C@@]341` [Codeine], in data set [1], the detection window was determined as 68.2 ± 8.3 h, the k el was 8.33e-05 s⁻¹, the MRT is 4.6 ± 2.1 h and the Tmax turned out to be 2.1 ± 1.3 h. The compound further gave a half-life in data set [1] of 3.3 ± 0.7 h. Further, the “plasma t1/2” value in data set [2] is 2 to 3 h. For the same compound, in data set [3], the MRT was 3.9 ± 0.8 h, the Tmax amounted to 1.9 ± 1 h, the half-life was 2.9 ± 0.8 h and the k el is 8.33e-05 s⁻¹. In addition, the detection window in data set [3] (setting [6]) turned out to be 61.3 ± 12.7 h.
By pKa is commonly meant the negative logarithm of the acid dissociation constant. On to `CN(C)CCC(c1ccc(Cl)cc1)c1ccccn1` (stereo not shown) [Chlorpheniramine], for which, in “clinical”, the MRT is 34.2 ± 4.6 h, the Tmax is 13.1 ± 5 h and the k el is 8.33e-06 s⁻¹. In addition, the pKa in data set [5] was 9.5^36. Moreover, the pKa in data set [5] (listed as Clp) was ~9.5.

Values taken from article PMC12096346, “Disposable Face Masks for Noninvasive Drug Detection: A Proof-of-Concept Study with Cough Syrup Constituents” (Analytical Chemistry, 2025).
